Tests used:
BTK [1] = molecular target: T1, BTK (Homo sapiens, UniProt Q06187); test: Cellular durability
BTK [2] = molecular target: T1, BTK; test: Dissociation of compound from BTK after guanidine-mediated unfolding; conditions: relative to samples without BTK
EGFR = EGFR (Homo sapiens, UniProt P00533); test: Enzymatic IC50 assay; format: biochemical
ITK = molecular target: T2, ITK (Homo sapiens, UniProt Q08881); test: Enzymatic IC50 assay; format: biochemical
T2 sequence (Q08881 1-620): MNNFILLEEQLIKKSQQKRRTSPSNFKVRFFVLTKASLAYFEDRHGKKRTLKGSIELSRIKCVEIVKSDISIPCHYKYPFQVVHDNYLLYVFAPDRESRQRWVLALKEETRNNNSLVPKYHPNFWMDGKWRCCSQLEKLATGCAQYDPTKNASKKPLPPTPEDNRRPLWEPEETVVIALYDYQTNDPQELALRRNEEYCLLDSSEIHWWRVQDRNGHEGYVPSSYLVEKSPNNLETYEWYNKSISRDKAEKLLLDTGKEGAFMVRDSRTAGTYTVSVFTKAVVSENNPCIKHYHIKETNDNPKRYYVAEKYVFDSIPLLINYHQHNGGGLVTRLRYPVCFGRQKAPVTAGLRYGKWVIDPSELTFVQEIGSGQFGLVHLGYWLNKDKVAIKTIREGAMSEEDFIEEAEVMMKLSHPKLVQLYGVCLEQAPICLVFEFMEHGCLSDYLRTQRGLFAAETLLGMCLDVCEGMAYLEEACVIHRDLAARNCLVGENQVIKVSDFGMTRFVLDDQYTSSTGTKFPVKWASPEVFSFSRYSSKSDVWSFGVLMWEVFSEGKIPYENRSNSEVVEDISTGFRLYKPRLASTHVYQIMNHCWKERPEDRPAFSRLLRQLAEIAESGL

JAK3 = molecular target: T3, JAK3 (Homo sapiens, UniProt P52333); test: Enzymatic IC50 assay; format: biochemical
T3 sequence (P52333 1-1124): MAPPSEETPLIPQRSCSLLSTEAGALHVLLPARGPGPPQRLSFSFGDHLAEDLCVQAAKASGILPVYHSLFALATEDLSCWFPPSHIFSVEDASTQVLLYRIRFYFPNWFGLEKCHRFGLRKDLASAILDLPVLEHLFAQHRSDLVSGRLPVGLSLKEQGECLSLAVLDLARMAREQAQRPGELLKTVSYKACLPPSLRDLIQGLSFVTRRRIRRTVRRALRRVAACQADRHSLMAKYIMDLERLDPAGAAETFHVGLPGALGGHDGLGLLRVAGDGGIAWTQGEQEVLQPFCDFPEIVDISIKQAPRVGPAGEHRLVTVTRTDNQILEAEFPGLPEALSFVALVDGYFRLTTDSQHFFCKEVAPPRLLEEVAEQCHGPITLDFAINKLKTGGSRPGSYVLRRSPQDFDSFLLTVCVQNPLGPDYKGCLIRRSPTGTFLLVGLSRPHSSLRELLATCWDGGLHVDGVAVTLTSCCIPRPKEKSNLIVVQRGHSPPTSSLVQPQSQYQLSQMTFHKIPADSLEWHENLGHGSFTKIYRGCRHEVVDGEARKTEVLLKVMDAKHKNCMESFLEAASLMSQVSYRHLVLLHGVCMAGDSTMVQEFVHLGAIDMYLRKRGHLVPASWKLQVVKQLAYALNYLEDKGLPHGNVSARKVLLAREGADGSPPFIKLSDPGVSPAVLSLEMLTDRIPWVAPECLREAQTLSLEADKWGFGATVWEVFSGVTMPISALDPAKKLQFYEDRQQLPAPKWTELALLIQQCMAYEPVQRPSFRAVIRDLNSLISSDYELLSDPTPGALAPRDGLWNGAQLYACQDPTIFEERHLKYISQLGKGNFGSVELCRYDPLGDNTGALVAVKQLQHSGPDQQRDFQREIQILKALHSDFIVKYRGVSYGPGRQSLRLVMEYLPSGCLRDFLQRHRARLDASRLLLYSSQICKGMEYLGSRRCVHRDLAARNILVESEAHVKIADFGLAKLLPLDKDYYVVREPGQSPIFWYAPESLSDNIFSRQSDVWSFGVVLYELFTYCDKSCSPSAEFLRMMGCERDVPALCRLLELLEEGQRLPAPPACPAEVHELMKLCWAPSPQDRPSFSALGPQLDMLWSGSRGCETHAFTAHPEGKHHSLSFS

Aqueous solubility = format: physicochemical
Oral bioavailability = conditions: in vivo
BTK [3] = molecular target: T1, BTK; test: Biochemical residence time using fluorescence competition; format: binding; conditions: for residence time: read-out: BTK residence time τ
BTK [4] = molecular target: T1, BTK; test: BTK cell occupancy using Alphascreen; format: cell-based

T1 sequence (Q06187 whole entry): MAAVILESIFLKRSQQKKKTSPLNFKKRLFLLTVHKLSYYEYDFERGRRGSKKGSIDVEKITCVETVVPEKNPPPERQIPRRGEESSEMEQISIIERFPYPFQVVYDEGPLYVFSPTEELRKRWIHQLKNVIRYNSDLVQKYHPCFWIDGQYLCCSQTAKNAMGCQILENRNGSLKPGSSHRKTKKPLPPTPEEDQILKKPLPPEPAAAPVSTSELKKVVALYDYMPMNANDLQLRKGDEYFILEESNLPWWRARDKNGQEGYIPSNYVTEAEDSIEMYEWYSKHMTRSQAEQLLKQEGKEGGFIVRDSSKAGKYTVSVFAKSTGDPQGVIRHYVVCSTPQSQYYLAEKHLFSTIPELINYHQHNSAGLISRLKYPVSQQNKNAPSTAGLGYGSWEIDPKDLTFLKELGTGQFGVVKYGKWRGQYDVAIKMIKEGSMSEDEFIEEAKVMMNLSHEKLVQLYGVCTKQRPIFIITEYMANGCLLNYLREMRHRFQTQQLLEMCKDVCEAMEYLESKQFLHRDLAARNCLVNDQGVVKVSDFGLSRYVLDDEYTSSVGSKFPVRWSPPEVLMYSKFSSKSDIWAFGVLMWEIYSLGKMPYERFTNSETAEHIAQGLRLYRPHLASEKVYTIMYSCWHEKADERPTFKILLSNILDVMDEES
EGFR, sequence (P00533 25-1210, species assumed): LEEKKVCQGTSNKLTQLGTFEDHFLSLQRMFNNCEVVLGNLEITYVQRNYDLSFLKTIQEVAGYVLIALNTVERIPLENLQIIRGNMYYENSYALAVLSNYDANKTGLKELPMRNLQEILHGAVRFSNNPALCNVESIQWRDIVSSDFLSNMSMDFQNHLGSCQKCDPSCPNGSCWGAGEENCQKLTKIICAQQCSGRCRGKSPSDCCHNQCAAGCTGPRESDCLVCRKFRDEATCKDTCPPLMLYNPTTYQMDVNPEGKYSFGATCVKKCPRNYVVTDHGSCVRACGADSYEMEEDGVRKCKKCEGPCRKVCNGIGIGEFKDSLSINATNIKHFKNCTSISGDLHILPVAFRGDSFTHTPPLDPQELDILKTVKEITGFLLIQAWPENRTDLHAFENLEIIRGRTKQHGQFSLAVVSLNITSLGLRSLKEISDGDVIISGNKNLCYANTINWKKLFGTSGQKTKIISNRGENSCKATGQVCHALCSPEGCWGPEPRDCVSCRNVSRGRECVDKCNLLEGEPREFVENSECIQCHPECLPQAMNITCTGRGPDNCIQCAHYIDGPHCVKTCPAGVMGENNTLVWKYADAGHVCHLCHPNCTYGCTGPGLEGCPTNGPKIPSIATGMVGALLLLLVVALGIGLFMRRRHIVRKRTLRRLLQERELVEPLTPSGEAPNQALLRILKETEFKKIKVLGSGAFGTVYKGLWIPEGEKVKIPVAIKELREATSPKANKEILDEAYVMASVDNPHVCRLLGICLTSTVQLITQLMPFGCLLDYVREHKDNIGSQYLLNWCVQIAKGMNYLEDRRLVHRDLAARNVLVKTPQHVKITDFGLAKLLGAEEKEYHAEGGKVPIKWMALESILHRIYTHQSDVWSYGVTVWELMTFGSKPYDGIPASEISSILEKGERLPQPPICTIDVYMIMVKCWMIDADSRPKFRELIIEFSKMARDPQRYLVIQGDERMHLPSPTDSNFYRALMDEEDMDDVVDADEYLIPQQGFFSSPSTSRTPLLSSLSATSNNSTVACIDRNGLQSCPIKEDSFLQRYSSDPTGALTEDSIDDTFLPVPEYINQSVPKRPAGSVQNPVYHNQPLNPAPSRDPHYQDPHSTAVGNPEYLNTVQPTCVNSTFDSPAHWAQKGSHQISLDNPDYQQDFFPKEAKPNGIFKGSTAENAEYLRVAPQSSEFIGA

Compound: CC=C(C#N)C(=O)N1CCC[C@@H](n2nc(-c3ccc(Oc4ccccc4)cc3)c3c(N)ncnc32)C1 [Compound 1]
- BTK occupancy 20 hrs post-washout (BTK [1]; Ramos B cells, 1 μM, 1 hr, PP-BODIPY): negligible

Compound: CC(C)(C)C=C(C#N)C(=O)N1CCC[C@@H](n2nc(-c3ccc(Oc4ccccc4)cc3)c3c(N)ncnc32)C1 [Compound 3, (R)-2-(3-(4-Amino-3-(4-phenoxyphenyl)-1H-pyrazolo[3,4-d]pyrimidin-1-yl)piperidine-1-carbonyl)-4,4-dimethylpent-2-enenitrile]
- Recovery of compound after guanidine-mediated denaturation of BTK (BTK [2]): 88 ± 10%
- Selectivity for BTK over EGFR (EGFR): > 1,000 fold
- Selectivity for BTK over ITK (ITK): 60 fold
- Selectivity for BTK over JAK3 (JAK3): > 1,000 fold
- Solubility (Aqueous solubility): low solubility
- Oral bioavailability (Oral bioavailability): poor oral bioavailability
- receptor occupancy at 1 µM (BTK [1]; Ramos, read-out: BTK occupancy 20 hrs post-washout): 55%

Compound: CC(C)(C=C(C#N)C(=O)N1CCC[C@H]1Cn1nc(-c2ccc(Oc3ccccc3)cc2F)c2c(N)ncnc21)N1CCOCC1 [Compound 8]
- residence time (BTK [3]): 4980 ± 840 min
- IC50 (BTK [4]): 5 to 27 nM

Compound: C=CC(=O)N1CCC[C@@H]1Cn1nc(-c2ccc(Oc3ccccc3)cc2F)c2c(N)ncnc21 [PP-ir]
- residence time (BTK [3]): > 12000 min
- BTK residence time τ (BTK [3]; room temperature): no evident dissociation
- IC50 (BTK [4]): 5 to 27 nM
